In PubChem BioAssay AID330 (DTP/NCI, 2004):
Values joined by “and” are separate entries in the source; they are usually repeats but may differ in a detail not shown here. Equal entries are not always repeated. Toxic doses and inconclusive results are not listed.

System: P388 leukemia ip, CD2F1 mice, survival T/C
Assay: NCI In Vivo Anticancer Drug Screen. Data for tumor model P388 Leukemia (intraperitoneal) in CD2F1 (CDF1) mice
Details: endpoint: median survival time, higher = longer survival
Outline: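 Mice carrying the transplanted tumor received test compound or vehicle. Survival was recorded in each group, and the value is the treated-group measurement divided by that of the vehicle-treated control group.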

[1] = dose: 25.0 mg/kg/injection, schedule: Q01DX005 (ip), vehicle: Klucel (hydroxypropylcellulose) (HPC)
[2] = dose: 50.0 mg/kg/injection, schedule: Q01DX005 (ip), vehicle: Klucel (hydroxypropylcellulose) (HPC)
[3] = dose: 100.0 mg/kg/injection, schedule: Q01DX005 (ip), vehicle: Klucel (hydroxypropylcellulose) (HPC)
[4] = dose: 200.0 mg/kg/injection, schedule: Q01DX005 (ip), vehicle: Klucel (hydroxypropylcellulose) (HPC)
[5] = dose: 100.0 mg/kg/injection, schedule: Q01DX001 (ip), vehicle: Klucel (hydroxypropylcellulose) (HPC)
[6] = dose: 200.0 mg/kg/injection, schedule: Q01DX001 (ip), vehicle: Klucel (hydroxypropylcellulose) (HPC)
[7] = dose: 50.0 mg/kg/injection, schedule: Q01DX005 (ip), vehicle: saline with Tween-80
[8] = dose: 100.0 mg/kg/injection, schedule: Q01DX005 (ip), vehicle: saline with Tween-80
[9] = dose: 200.0 mg/kg/injection, schedule: Q01DX005 (ip), vehicle: saline with Tween-80
[10] = dose: 60.0 mg/kg/injection, schedule: Q01DX005 (ip), vehicle: saline with Tween-80
[11] = dose: 120.0 mg/kg/injection, schedule: Q01DX005 (ip), vehicle: saline with Tween-80
[12] = dose: 100.0 mg/kg/injection, schedule: Q01DX001 (ip), vehicle: saline with Tween-80
[13] = dose: 200.0 mg/kg/injection, schedule: Q01DX001 (ip), vehicle: saline with Tween-80
[14] = dose: 400.0 mg/kg/injection, schedule: Q01DX001 (ip), vehicle: saline with Tween-80
[15] = dose: 100.0 mg/kg/injection, schedule: Q01DX001 (ip), vehicle: saline
[16] = dose: 50.0 mg/kg/injection, schedule: Q01DX009 (ip), vehicle: saline with Tween-80
[17] = dose: 100.0 mg/kg/injection, schedule: Q01DX009 (ip), vehicle: saline with Tween-80
[18] = dose: 200.0 mg/kg/injection, schedule: Q01DX009 (ip), vehicle: saline with Tween-80

Nc1cc2c3ccccc3ccc2c2ccccc12
T/C [1]: 104 % of control | T/C [2]: 107 % of control | T/C [3]: 109 % of control | T/C [4]: 105 % of control

Brc1cc2cccnc2c2ccccc12
T/C [5]: 98 % of control | T/C [6]: 94 % of control | T/C (dose: 400.0 mg/kg/injection, schedule: Q01DX001 (ip), vehicle: Klucel (hydroxypropylcellulose) (HPC)): 97 % of control

O=C(Nc1ccc(Cl)c(Cl)c1)Sc1ccc(Cl)cc1
T/C [7]: 113 % of control | T/C [8]: 119 % of control | T/C [9]: 112 % of control

Oc1cc2c(cc1C(c1ccc3c(c1)OCO3)N1CCN(C(c3ccc4c(c3)OCO4)c3cc4c(cc3O)OCO4)CC1)OCO2 (configuration not stated)
T/C [10]: 89 % of control | T/C [11]: 87 % of control | T/C (dose: 240.0 mg/kg/injection, schedule: Q01DX005 (ip), vehicle: saline with Tween-80): 89 % of control

NC(=S)n1nc(-c2ccccc2)c(N=Nc2cccc(Cl)c2Cl)c1-c1ccccc1
T/C [12]: 89 % of control | T/C [13]: 94 % of control | T/C [14]: 97 % of control

CC(=O)OCC#CCN1CCCCC1C (configuration not stated)
T/C (dose: 50.0 mg/kg/injection, schedule: Q01DX005 (ip), vehicle: saline): 111 % of control | T/C (dose: 100.0 mg/kg/injection, schedule: Q01DX005 (ip), vehicle: saline): 101 % of control | T/C (dose: 200.0 mg/kg/injection, schedule: Q01DX005 (ip), vehicle: saline): 103 % of control

CN(C)c1ccc(C2(c3ccc(N(C)C)cc3)NNC(=O)c3cc(N(C)C)ccc32)cc1
T/C (dose: 1.5 mg/kg/injection, schedule: Q01DX005 (ip), vehicle: saline): 100 % of control | T/C (dose: 3.0 mg/kg/injection, schedule: Q01DX005 (ip), vehicle: saline): 93 % of control | T/C (dose: 6.0 mg/kg/injection, schedule: Q01DX005 (ip), vehicle: saline): 95 % of control | T/C (dose: 6.25 mg/kg/injection, schedule: Q01DX005 (ip), vehicle: saline with Tween-80): 92 % of control

COc1ccc2c(c1)CCC1=C2CCS1(=O)=O
T/C [7]: 99 % of control | T/C [8]: 97 % of control | T/C [9]: 103 % of control

Cc1nn(CCO)c(=O)c(C#N)c1C
T/C (dose: 25.0 mg/kg/injection, schedule: Q04DX002 (ip), vehicle: distilled water + Tween-80): 103 % of control | T/C (dose: 50.0 mg/kg/injection, schedule: Q04DX002 (ip), vehicle: distilled water + Tween-80): 108 % of control | T/C (dose: 100.0 mg/kg/injection, schedule: Q04DX002 (ip), vehicle: distilled water + Tween-80): 101 % of control | T/C (dose: 200.0 mg/kg/injection, schedule: Q04DX002 (ip), vehicle: distilled water + Tween-80): 94 % of control

C[N+](C)(C)CCC[n+]1ccc(CCn2ccc3ccccc32)cc1
T/C (dose: 25.0 mg/kg/injection, schedule: Q01DX001 (ip), vehicle: saline): 93 % of control | T/C (dose: 50.0 mg/kg/injection, schedule: Q01DX001 (ip), vehicle: saline): 92 % of control | T/C [15]: 102 % of control

COP(=O)(CCC1OCCO1)OC
T/C [7]: 104 % of control | T/C [8]: 104 % of control | T/C [9]: 99 % of control

CCCCN(CCCC)CC(O)c1cc(-c2ccc(Cl)cc2)nc(-c2ccc(Cl)cc2)c1 (configuration not stated)
T/C (dose: 12.5 mg/kg/injection, schedule: Q01DX009 (ip), vehicle: saline with Tween-80): 90 % of control | T/C (dose: 25.0 mg/kg/injection, schedule: Q01DX009 (ip), vehicle: saline with Tween-80): 90 % of control | T/C [16]: 92 % of control and 93 % of control | T/C [17]: 90 % of control

COc1ccc2c(c1)n([O-])c1ccccc1[n+]2=O
T/C (dose: 25.0 mg/kg/injection, schedule: Q01DX005 (ip), vehicle: saline with Tween-80): 122 % of control | T/C [8]: 157 % of control and 172 % of control

FC(F)(F)c1ccc(NC(=S)SCc2ccc(Cl)cc2)cc1
T/C (dose: 50.0 mg/kg/injection, schedule: Q01DX009 (ip), vehicle: suspension in saline): 90 % of control | T/C (dose: 100.0 mg/kg/injection, schedule: Q01DX009 (ip), vehicle: suspension in saline): 100 % of control | T/C (dose: 200.0 mg/kg/injection, schedule: Q01DX009 (ip), vehicle: suspension in saline): 108 % of control

CC(=O)OC1CC2(C)CCC3C(C)C(=O)OC3C2C(C)C1=O (configuration not stated)
T/C (dose: 100.0 mg/kg/injection, schedule: Q04DX002 (ip), vehicle: saline with Tween-80): 100 % of control | T/C (dose: 200.0 mg/kg/injection, schedule: Q04DX002 (ip), vehicle: saline with Tween-80): 100 % of control | T/C (dose: 400.0 mg/kg/injection, schedule: Q04DX002 (ip), vehicle: saline with Tween-80): 99 % of control and 100 % of control

CC(C)(C)c1cc(/C=N/n2c(-c3ccccc3)nc3ccccc3c2=O)cc(C(C)(C)C)c1O
T/C (dose: 60.0 mg/kg/injection, schedule: Q01DX005 (ip), vehicle: Klucel (hydroxypropylcellulose) (HPC)): 98 % of control | T/C (dose: 120.0 mg/kg/injection, schedule: Q01DX005 (ip), vehicle: Klucel (hydroxypropylcellulose) (HPC)): 97 % of control | T/C (dose: 240.0 mg/kg/injection, schedule: Q01DX005 (ip), vehicle: Klucel (hydroxypropylcellulose) (HPC)): 90 % of control

CCOC(=O)C(Cc1ccc(O)cc1)NC(=O)c1cc2c(cn1)[nH]c1ccccc12 (configuration not stated)
T/C [10]: 101 % of control | T/C [11]: 117 % of control

Cc1ccc(Cl)cc1NC(=O)COc1ccc(Cl)cc1Cl
T/C (dose: 100.0 mg/kg/injection, schedule: Q04DX003 (ip), vehicle: saline with Tween-80): 100 % of control | T/C (dose: 200.0 mg/kg/injection, schedule: Q04DX003 (ip), vehicle: saline with Tween-80): 100 % of control | T/C (dose: 400.0 mg/kg/injection, schedule: Q04DX003 (ip), vehicle: saline with Tween-80): 90 % of control

COc1cc2c(OC)c(c1)CCC1=CC(=O)C(=CC1=O)CC2
T/C [5]: 99 % of control | T/C [6]: 96 % of control

OCCCCCCCCCCCCCC1C=CCC1 (configuration not stated)
T/C [15]: 104 % of control | T/C (dose: 200.0 mg/kg/injection, schedule: Q01DX001 (ip), vehicle: saline): 100 % of control | T/C (dose: 400.0 mg/kg/injection, schedule: Q01DX001 (ip), vehicle: saline): 100 % of control

OCCNc1ncnc2cc(Cl)ccc12
T/C [1]: 98 % of control | T/C [2]: 95 % of control | T/C [3]: 105 % of control | T/C [4]: 98 % of control

CC(C)(C)N=C(CCNc1ccccc1Cl)Nc1ccccc1Cl
T/C [16]: 103 % of control | T/C [17]: 103 % of control | T/C [18]: 86 % of control

Cc1cc(-c2cccc3ccccc23)[n+]([O-])cc1C
T/C [7]: 101 % of control | T/C [8]: 101 % of control | T/C [9]: 90 % of control

Cc1cc(Br)ccc1N1CSC(=S)N(c2ccc(Br)cc2C)C1
T/C [7]: 88 % of control | T/C [8]: 90 % of control | T/C [9]: 93 % of control

C/C(=N\Nc1cccc2ccccc12)c1ccccn1
T/C [7]: 111 % of control | T/C [8]: 103 % of control | T/C [9]: 98 % of control

CCCCn1c(CCC)nc([N+](=O)[O-])c1Sc1ncn[nH]1
T/C [1]: 98 % of control | T/C [2]: 117 % of control and 118 % of control | T/C [3]: 114 % of control | T/C [4]: 122 % of control and 123 % of control

O=S1(=O)C=C(c2ccc3ccccc3c2)C1
T/C [12]: 105 % of control | T/C [13]: 100 % of control | T/C [14]: 96 % of control

CC(=O)OC1CC2CCC1(CC(=O)c1ccccc1)C2(C)C (configuration not stated)
T/C [16]: 96 % of control | T/C [17]: 92 % of control | T/C [18]: 100 % of control

CCCCN1C(=O)/C(=C/c2ccccc2OC)SC1=S
T/C [2]: 98 % of control | T/C [3]: 94 % of control

Cc1cc(C)c([N+](=O)[O-])c([N+](=O)[O-])c1C
T/C [16]: 101 % of control | T/C [17]: 106 % of control | T/C [18]: 102 % of control

C=C(NC(=O)C(=C)NC(=O)c1csc(C2=NC3c4csc(n4)C4NC(=O)c5csc(n5)C(C(C)(O)C(C)O)NC(=O)C5CSC(=N5)/C(=C/C)NC(=O)C(C(C)O)NC(=O)c5csc(n5)C3(CC2)NC(=O)C(C)NC(=O)C(=C)NC(=O)C(=C)NC(=O)C(C(C)C)NC2C=Cc3c(C(C)O)cc(nc3C2O)C(=O)OC4C)n1)C(N)=O (configuration not stated)
T/C (dose: 50.0 mg/kg/injection, schedule: Q01DX009 (ip), vehicle: saline): 150 % of control

Nc1nc2[nH]c(=O)c(=O)[nH]c2c(=O)[nH]1
T/C (dose: 50.0 mg/kg/injection, schedule: Q04DX003 (ip), vehicle: Klucel (hydroxypropylcellulose) (HPC)): 96 % of control | T/C (dose: 100.0 mg/kg/injection, schedule: Q04DX003 (ip), vehicle: Klucel (hydroxypropylcellulose) (HPC)): 97 % of control | T/C (dose: 200.0 mg/kg/injection, schedule: Q04DX003 (ip), vehicle: Klucel (hydroxypropylcellulose) (HPC)): 94 % of control | T/C (dose: 400.0 mg/kg/injection, schedule: Q04DX003 (ip), vehicle: Klucel (hydroxypropylcellulose) (HPC)): 105 % of control
